From ChEMBL document CHEMBL3997794, “Design and synthesis of benzodiazepine analogs as isoform-selective human lysine deacetylase inhibitors” (Eur J Med Chem, 2017)

Experiments:
Histone deacetylase 8 = target: T1, Histone deacetylase 8 (Homo sapiens, UniProt Q9BY41); test: Inhibition of human KDAC8 after 60 mins by fluorescence assay
T1 sequence (Q9BY41 whole entry): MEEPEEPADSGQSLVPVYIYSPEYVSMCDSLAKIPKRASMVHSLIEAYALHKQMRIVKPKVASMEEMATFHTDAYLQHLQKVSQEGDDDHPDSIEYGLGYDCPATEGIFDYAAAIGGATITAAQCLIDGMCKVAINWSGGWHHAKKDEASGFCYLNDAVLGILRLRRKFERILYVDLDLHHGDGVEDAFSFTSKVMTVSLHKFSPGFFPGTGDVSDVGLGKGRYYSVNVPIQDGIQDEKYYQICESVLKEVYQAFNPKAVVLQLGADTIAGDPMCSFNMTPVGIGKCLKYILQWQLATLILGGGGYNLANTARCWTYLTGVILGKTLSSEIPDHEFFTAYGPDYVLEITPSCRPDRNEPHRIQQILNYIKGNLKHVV

[1] = target: T2, Protein deacetylase HDAC6 (Homo sapiens, UniProt Q9UBN7); test: Inhibition of human KDAC6 using FITC-labeled histone H4 acetylated peptide as substrate after 60 mins by fluorescence assay
T2 sequence (Q9UBN7 whole entry): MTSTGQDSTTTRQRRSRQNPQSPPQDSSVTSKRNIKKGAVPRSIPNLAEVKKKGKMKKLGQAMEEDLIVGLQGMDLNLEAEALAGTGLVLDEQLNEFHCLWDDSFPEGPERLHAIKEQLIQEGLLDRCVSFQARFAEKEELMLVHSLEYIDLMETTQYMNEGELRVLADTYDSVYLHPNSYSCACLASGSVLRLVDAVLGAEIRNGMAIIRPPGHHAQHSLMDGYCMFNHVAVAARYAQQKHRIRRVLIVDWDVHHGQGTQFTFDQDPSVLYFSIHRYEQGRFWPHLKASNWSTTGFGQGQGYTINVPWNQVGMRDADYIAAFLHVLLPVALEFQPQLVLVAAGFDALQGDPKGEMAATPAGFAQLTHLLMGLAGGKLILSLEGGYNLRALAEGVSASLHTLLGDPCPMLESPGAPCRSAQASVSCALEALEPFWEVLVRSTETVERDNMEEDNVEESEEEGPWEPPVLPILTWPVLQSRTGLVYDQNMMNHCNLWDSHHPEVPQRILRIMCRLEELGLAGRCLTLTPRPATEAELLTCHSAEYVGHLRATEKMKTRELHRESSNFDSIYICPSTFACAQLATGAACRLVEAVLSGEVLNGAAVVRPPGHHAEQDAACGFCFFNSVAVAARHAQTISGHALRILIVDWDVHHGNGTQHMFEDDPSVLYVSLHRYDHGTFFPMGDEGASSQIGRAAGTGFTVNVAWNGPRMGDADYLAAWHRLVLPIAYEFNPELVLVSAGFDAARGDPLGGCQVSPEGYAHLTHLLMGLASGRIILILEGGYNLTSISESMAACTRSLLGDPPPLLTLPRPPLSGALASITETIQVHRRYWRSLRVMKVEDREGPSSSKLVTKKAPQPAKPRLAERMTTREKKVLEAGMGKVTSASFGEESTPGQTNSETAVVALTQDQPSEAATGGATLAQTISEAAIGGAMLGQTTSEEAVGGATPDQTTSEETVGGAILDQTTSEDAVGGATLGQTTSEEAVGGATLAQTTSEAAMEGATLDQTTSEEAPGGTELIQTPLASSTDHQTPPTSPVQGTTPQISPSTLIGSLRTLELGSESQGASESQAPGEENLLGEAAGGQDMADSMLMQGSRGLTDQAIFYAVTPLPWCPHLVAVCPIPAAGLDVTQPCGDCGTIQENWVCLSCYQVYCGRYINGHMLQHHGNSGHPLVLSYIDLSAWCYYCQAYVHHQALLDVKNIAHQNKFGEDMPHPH

Histone deacetylase 3 [2] = target: T3, Histone deacetylase 3 (Homo sapiens, UniProt O15379); test: Inhibition of human KDAC3 using FITC-labeled p53 acetylated peptide as substrate after 60 mins by fluorescence assay
T3 sequence (O15379 whole entry): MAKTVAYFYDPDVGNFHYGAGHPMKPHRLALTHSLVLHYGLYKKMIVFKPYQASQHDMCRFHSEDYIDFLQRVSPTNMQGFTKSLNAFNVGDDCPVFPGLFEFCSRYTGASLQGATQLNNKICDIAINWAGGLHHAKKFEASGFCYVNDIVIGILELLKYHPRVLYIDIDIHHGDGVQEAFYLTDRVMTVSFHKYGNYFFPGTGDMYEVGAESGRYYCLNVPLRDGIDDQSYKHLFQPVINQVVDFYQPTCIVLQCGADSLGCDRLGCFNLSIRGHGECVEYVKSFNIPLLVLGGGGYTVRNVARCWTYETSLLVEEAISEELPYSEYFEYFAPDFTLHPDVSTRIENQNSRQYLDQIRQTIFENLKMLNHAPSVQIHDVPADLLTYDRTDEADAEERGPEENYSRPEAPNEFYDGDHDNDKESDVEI

Histone deacetylase 1 [3] = target: T4, Histone deacetylase 1 (Homo sapiens, UniProt Q13547); test: Inhibition of human KDAC1 using substrate A after 60 mins by fluorescence assay
T4 sequence (Q13547 whole entry): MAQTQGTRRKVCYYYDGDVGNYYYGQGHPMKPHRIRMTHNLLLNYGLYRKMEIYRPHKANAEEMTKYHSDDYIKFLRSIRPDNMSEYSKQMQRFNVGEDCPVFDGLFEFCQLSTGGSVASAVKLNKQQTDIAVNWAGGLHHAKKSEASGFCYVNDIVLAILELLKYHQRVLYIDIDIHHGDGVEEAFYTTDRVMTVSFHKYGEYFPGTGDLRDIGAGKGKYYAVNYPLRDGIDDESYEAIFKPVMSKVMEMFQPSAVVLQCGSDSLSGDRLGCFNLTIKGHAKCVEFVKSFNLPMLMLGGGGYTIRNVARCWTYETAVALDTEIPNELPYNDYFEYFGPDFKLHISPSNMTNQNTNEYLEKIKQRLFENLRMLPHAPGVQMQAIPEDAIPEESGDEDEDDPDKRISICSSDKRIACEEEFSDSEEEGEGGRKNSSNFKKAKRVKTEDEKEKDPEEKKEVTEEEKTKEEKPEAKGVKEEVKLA

[4] = target: T5, Histone deacetylase 8 (Homo sapiens) (UniProt Q9BY41); test: Inhibition of human KDAC8 at 30 uM after 60 mins by fluorescence assay relative to control
T5 sequence (whole entry): T1 sequence (Q9BY41 whole entry)

Histone deacetylase 3 [5] = target: T3, Histone deacetylase 3; test: Inhibition of human KDAC3 at 30 uM using FITC-labeled p53 acetylated peptide as substrate after 60 mins by fluorescence assay relative to control
Histone deacetylase 1 [6] = target: T4, Histone deacetylase 1; test: Inhibition of human KDAC1 at 30 uM using substrate A after 60 mins by fluorescence assay relative to control
[7] = target: T6, Protein deacetylase HDAC6 (Homo sapiens) (UniProt Q9UBN7); conditions: at 30 µM
T6 sequence (whole entry): T2 sequence (Q9UBN7 whole entry)
Description: Inhibition of human KDAC6 at 30 uM using FITC-labeled histone H4 acetylated peptide as substrate after 60 mins by fluorescence assay relative to control

Row | Compound | IC50 (Histone deacetylase 8) [µM] | IC50 [1] [µM] | IC50 (Histone deacetylase 3 [2]) [µM] | IC50 (Histone deacetylase 1 [3]) [µM] | inhibition [4] [%] | inhibition (Histone deacetylase 3 [5]) [%] | inhibition (Histone deacetylase 1 [6]) [%] | inhibition [7] [%]
1 | C[C@@H]1N=C(c2ccccc2)c2ccccc2N(CCCCC(=O)NO)C1=O | 24.7 | 2.95 | 1.8 | 12.7 | 53.8 | 93.8 | 68.4 | 92.7
2 | COC(=O)CCCCN1C(=O)[C@H](COC(C)(C)C)N=C(c2ccccc2)c2ccccc21 | > 30 | > 30 | > 30 | > 30 | 5 | 0 | 0.36 | 0
3 | CC(C)(C)OC(=O)NCCCC[C@@H]1N=C(c2ccccc2)c2ccccc2NC1=O | > 30 | > 30 | > 30 | > 30 | 0 | 0 | 2.97 | 0
4 | NC(=O)C[C@@H]1N=C(c2ccccc2)c2ccccc2N(CCCCC(=O)NO)C1=O | > 30 | 5.38 | 3.1 | 22.5 | 26.2 | 90.9 | 57.6 | 82.2
5 | NC(=O)CC[C@@H]1N=C(c2ccccc2)c2ccccc2N(CCCCC(=O)NO)C1=O | > 30 | 1.29 | 1.94 | 13.9 | 30.8 | 94 | 64.5 | 96
6 | CC(C)(C)OC[C@@H]1N=C(c2ccccc2)c2ccccc2NC1=O | > 30 | > 30 | > 30 | > 30 | 0 | 0.38 | 1.48 | 2.44
7 | O=C(CCCCN1C(=O)[C@H](CC(=O)NO)N=C(c2ccccc2)c2ccccc21)NO | > 30 | > 30 | 10.4 | 9.99 | 10 | 77.7 | 74.7 | 42.5
8 | O=C(O)CCCCN1C(=O)[C@H](CC(=O)O)N=C(c2ccccc2)c2ccccc21 | > 30 | > 30 | > 30 | > 30 | 0 | 1.93 | 0 | 0
9 | O=C(CCCCN1C(=O)CN=C(c2ccccc2)c2ccccc21)NO | 6.72 | 1.89 | 0.66 | 3.84 | 75.9 | 97.2 | 88.3 | 94.2
10 | O=C(CC[C@@H]1N=C(c2ccccc2)c2ccccc2NC1=O)NO | > 30 | > 30 | > 30 | 16.9 | 43.8 | 4.57 | 64.4 | 36.5
11 | O=C(CCCCN1C(=O)[C@H](Cc2ccc(O)cc2)N=C(c2ccccc2)c2ccccc21)NO | > 30 | 8.46 | 5.29 | > 30 | 14.9 | 86.4 | 42.9 | 78.5
12 | CC(C)(C)Oc1ccc(C[C@@H]2N=C(c3ccccc3)c3ccccc3N(CCCCC(=O)NO)C2=O)cc1 | 3.3 | 2.87 | 0.85 | 6.18 | 89.9 | 98.4 | 82 | 92.1
13 | CC(C)(C)OC(=O)n1cc(C[C@@H]2N=C(c3ccccc3)c3ccccc3NC2=O)c2ccccc21 | > 30 | > 30 | > 30 | > 30 | 0 | 1.32 | 6.47 | 0
14 | COC(=O)CCCCN1C(=O)CN=C(c2ccccc2)c2ccccc21 | > 30 | > 30 | > 30 | > 30 | 2.83 | 0 | 0.19 | 0
15 | CC(C)(C)OC(=O)CC[C@H]1N=C(c2ccccc2)c2ccccc2NC1=O | > 30 | > 30 | > 30 | > 30 | 4.35 | 3.85 | 10.5 | 4.3
16 | CC(C)(C)OC(=O)C[C@H]1N=C(c2ccccc2)c2ccccc2NC1=O | > 30 | > 30 | > 30 | > 30 | 0 | 0 | 0.37 | 0
17 | O=C(C[C@H]1N=C(c2ccccc2)c2ccccc2NC1=O)NO | > 30 | > 30 | > 30 | > 30 | 19 | 1.64 | 9.14 | 0
18 | C[C@@H]1N=C(c2ccccc2)c2ccccc2N(CCCCC(=O)O)C1=O | > 30 | > 30 | > 30 | > 30 | 8.87 | 0 | 11.3 | 0.27
19 | CC(C)(C)OC[C@@H]1N=C(c2ccccc2)c2ccccc2N(CCCCC(=O)NO)C1=O | > 30 | 5.05 | 1.21 | 9 | 26.9 | 94.6 | 73.7 | 85.1
20 | CC(C)C[C@@H]1N=C(c2ccccc2)c2ccccc2NC1=O | > 30 | > 30 | > 30 | > 30 | 0 | 0 | 2.85 | 5.48
21 | COC(=O)CCCCN1C(=O)[C@H](CCC(=O)OC(C)(C)C)N=C(c2ccccc2)c2ccccc21 | > 30 | > 30 | > 30 | > 30 | 2.88 | 0 | 2.72 | 0
22 | COC(=O)CCCCN1C(=O)[C@H](Cc2ccccc2)N=C(c2ccccc2)c2ccccc21 | > 30 | > 30 | > 30 | > 30 | 0 | 1.85 | 1.72 | 6.49
23 | CC(C)(C)OC(=O)CC[C@@H]1N=C(c2ccccc2)c2ccccc2NC1=O | > 30 | > 30 | > 30 | > 30 | 1.79 | 0 | 5.85 | 0.01
24 | O=C(CCCNC(=O)CC[C@@H]1N=C(c2ccccc2)c2ccccc2NC1=O)NO | > 30 | 7.16 | 5.17 | 22.9 | 33.6 | 87.2 | 55.8 | 83.5
25 | O=C(CCCCN1C(=O)[C@H](Cc2cc3ccccc3[nH]2)N=C(c2ccccc2)c2ccccc21)NO | > 30 | 1.95 | 1.01 | 16.8 | 34.1 | 98.9 | 60 | 93.2
